Results from patent US20070219146A1, “Synergistic Pharmaceutical And/Or Neutraceutical Flavanoid Composition For Management Of Diabetes Mellitus” (priority 2006, published 2007).

What was measured:
Alloxan diabetic mice [1] = test: Acute study of Cocoa Flavanoid, blood sugar level in Alloxan diabetic mice; format: in vivo, Swiss Albino mice (male); conditions: Glyburide 10 mg/kg; for Summary in percentage (Blood sugar level): reduction versus Normal
Method: Swiss Albino mice (male) in the weight range 25 to 30 grams were studied for acute affect. They were made diabetic by the admnistration of Alloxan (with admnistration of 70 mg/kg Alloxan and in 48 hours the animals develop diabetes). As the mice became diabetic and the blood sugar was above […], they were grouped into […] of six each. Each group was administered by the test drug at 25 mg/kg, 50 mg/kg 100 mg/kg and 250 mg/kg body weight. One group was administered a positive control drug glyburide at 10 mg/kg of body weight. Blood samples were drawn at 2 hour, 4 hour, 6 hour and 24 hour intervals for all mice. The blood sugar pattern is studied. It has been found out that the best results are obtained for a dose of 50 mg/kg body weight at 2 hours after administration and it increases up to the 6th hour. Good result is obtained for 100 mg/kg drug. […] The effect of 50 mg/kg compared very well with the effect of positive control drug glyburide at 10 mg/kg body weight.
This is an interesting finding that the hypoglycemic effect is best for a dose ranging between 50 mg to 100 mg/kg of body weight.

Alloxan diabetic mice [2] = test: Sub acute study (28 days) of Cocoa Flavanoid, blood sugar level in Alloxan diabetic mice; format: in vivo, Swiss Albino mice (Male); conditions: Glyburide 10 mg/kg; for Summary in percentage (Blood sugar level): reduction versus Normal
Method: Swiss Albino mice (Male) in the weight range of 25 to 30 gram were studied for sub acute effect for 28 days. The mice were made diabetic by admnistration of Alloxan. As the mice became diabetic and the blood sugar was above […] they were chosen for the study. 4 groups were made. One group was given 50 mg/kg, 2nd group 100 mg/kg, 3rd group 250 mg/kg and the 4th group positive control glyburide at 10 mg/kg. Treatment was given for 28 days.
A very interesting observation was made that the best effect was produced by the dose of 100 mg/kg body weight. The effect started by 7th day and increased up to 28th day. […] Unlike acute study, the sub acute study has confirmed that 100 mg/kg given the most optimal blood sugar reduction. This effect was sustained after the removal of treatment on 35th day.

COc1ccc(Cl)cc1C(=O)NCCc1ccc(S(=O)(=O)NC(=O)NC2CCCCC2)cc1 [Glyburide]
Blood sugar level (reading) (Alloxan diabetic mice [1]; 2 hour): 317.50
Summary in percentage (Blood sugar level) (Alloxan diabetic mice [1]; 2 hour): 15%
Blood sugar level (reading) (Alloxan diabetic mice [1]; 4 hour): 266.16
Summary in percentage (Blood sugar level) (Alloxan diabetic mice [1]; 4 hour): 29%
Blood sugar level (reading) (Alloxan diabetic mice [1]; 6 hour): 149.50
Summary in percentage (Blood sugar level) (Alloxan diabetic mice [1]; 6 hour): 60%
Blood sugar level (reading) (Alloxan diabetic mice [1]; 24 hour): 228.66
Summary in percentage (Blood sugar level) (Alloxan diabetic mice [1]; 24 hour): 39%
Blood sugar level (reading) (Alloxan diabetic mice [1]; Normal (before administration)): 374.33
Blood sugar level (reading) (Alloxan diabetic mice [2]; Normal (before treatment)): 396.09
Blood sugar level (reading) (Alloxan diabetic mice [2]; day 7): 323.46
Summary in percentage (Blood sugar level) (Alloxan diabetic mice [2]; day 7): 18%
Blood sugar level (reading) (Alloxan diabetic mice [2]; day 14): 265.46
Summary in percentage (Blood sugar level) (Alloxan diabetic mice [2]; day 14): 33%
Blood sugar level (reading) (Alloxan diabetic mice [2]; day 21): 170.82
Summary in percentage (Blood sugar level) (Alloxan diabetic mice [2]; day 21): 57%
Blood sugar level (reading) (Alloxan diabetic mice [2]; day 28): 137.90
Summary in percentage (Blood sugar level) (Alloxan diabetic mice [2]; day 28): 65%
